US8367838B2, “Amines or amino alcohols as GLYT1 inhibitors” (Hoffmann-La Roche Inc., priority 2009, dated 2013)
Where a name gives a salt, the structure may show the parent alone.

Biological target: T1, mGlyT-1b (Mus musculus, UniProt P28571)
T1 construct: host or cells: Flp-in-CHO
T1 sequence (P28571 1-651 isoform P28571-2): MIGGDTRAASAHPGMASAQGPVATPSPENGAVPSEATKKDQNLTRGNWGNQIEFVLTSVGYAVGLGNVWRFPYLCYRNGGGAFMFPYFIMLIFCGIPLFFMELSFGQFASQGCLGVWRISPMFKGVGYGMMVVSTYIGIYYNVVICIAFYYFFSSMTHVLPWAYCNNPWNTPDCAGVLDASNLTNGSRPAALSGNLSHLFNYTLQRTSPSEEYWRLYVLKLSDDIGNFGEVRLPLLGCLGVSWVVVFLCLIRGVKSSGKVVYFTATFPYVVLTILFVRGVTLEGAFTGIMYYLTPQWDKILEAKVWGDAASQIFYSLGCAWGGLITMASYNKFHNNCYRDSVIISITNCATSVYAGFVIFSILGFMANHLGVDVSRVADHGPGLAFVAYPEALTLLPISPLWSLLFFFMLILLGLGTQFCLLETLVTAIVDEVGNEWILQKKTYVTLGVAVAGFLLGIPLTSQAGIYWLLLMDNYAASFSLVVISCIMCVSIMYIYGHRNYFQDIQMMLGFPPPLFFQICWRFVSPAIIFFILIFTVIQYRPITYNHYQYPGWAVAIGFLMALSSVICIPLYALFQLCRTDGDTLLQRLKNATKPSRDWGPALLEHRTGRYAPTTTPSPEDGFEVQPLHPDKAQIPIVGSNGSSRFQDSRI
Test: Glycine uptake inhibition assay (mGlyT-1b), [3H]-glycine uptake in transfected Flp-in-CHO cells
Assay type: cell-based
Details: Flp-in-CHO cells transfected with mGlyT-1b cDNA; [3H]-glycine 60 nM and 25 μM non-radioactive glycine; 20 min preincubation at 22° C.; read-out: IC50 (μM) at GlyT-1; Ic50 (hglyt1b)
Outline: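 Flp-in CHO cells stably expressing mouse GlyT-1b were preincubated 20 min at 22 °C with inhibitor in pH 7.4 Hepes-Tris buffer. Uptake was then run with 60 nM [3H]-glycine plus 25 μM unlabeled glycine, with 10 mM glycine defining nonspecific uptake. Cell radioactivity was counted by scintillation to derive IC50.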

Structure (SMILES)	IC50 [µM]
CN(C)c1cccc(-c2ccc([C@@H](O)[C@@H](N)c3ccc(Cl)c(Cl)c3)cc2)c1 (racemic) [Example 89, rac-erythro-2-Amino-2-(3,4-dichloro-phenyl)-1-(3′-dimethylamino-biphenyl-4-yl)-ethanol]	0.305
N[C@@H](c1ccc(C(F)(F)F)c(F)c1)[C@H](O)c1ccc(-c2cncc(F)c2)cc1 (racemic) [Example 96, rac-erythro-2-Amino-1-[4-(5-fluoro-pyridin-3-yl)-phenyl]-2-(3-fluoro-4-trifluoromethyl-phenyl)-ethanol]	0.733
N[C@@H](c1ccc(Cl)cc1F)[C@H](O)c1ccc(-c2cccnc2)cc1 (racemic) [Example 97, rac-erythro-2-Amino-2-(4-chloro-2-fluoro-phenyl)-1-(4-pyridin-3-yl-phenyl)-ethanol]	0.267
CO[C@H](c1ccc(-c2cccnc2)cc1)[C@@H](N)c1ccc(Cl)c(Cl)c1 (racemic) [Example 98, rac-erythro-1-(3,4-Dichloro-phenyl)-2-methoxy-2-(4-pyridin-3-yl-phenyl)-ethylamine dihydrochloride]	0.388
CCO[C@H](c1ccc(-c2cncc(F)c2)cc1)[C@@H](N)c1ccc(Cl)c(Cl)c1 (racemic) [Example 99, rac-erythro-[1-(3,4-Dichloro-phenyl)-2-ethoxy-2-[4-(5-fluoro-pyridin-3-yl)-phenyl]-ethylamine trifluoroacetate]	0.285
N[C@@H](c1ccc(Cl)c(Cl)c1)[C@H](O)c1ccc(Oc2ccccc2)cc1 (racemic) [Example 100, rac-erythro-2-Amino-2-(3,4-dichloro-phenyl)-1-(4-phenoxy-phenyl)-ethanol]	0.323
N[C@@H](c1ccc(Cl)cc1)[C@H](O)c1ccc(OCC(F)(F)C(F)(F)F)cc1F (racemic) [Example 101, rac-erythro-2-Amino-2-(4-chloro-phenyl)-1-[2-fluoro-4-(2,2,3,3,3-pentafluoro-propoxy)-phenyl]-ethanol]	0.334
CC(Oc1ccc([C@@H](O)[C@@H](N)c2ccc(Cl)cc2)cc1)C(F)(F)F (mixture of isomers) [Example 102, rac-erythro-2-Amino-2-(4-chloro-phenyl)-1-[4-(2,2,2-trifluoro-1-methyl-ethoxy)-phenyl]-ethanol]	0.384
N[C@@H](c1ccc(Cl)c(Cl)c1)[C@H](O)c1ccc(-c2cccc([N+](=O)[O-])c2)cc1 (racemic) [Example 103, rac-erythro-2-Amino-2-(3,4-dichloro-phenyl)-1-(3′-nitro-biphenyl-4-yl)-ethanol]	0.412
CC(C)Oc1ccc(F)c(-c2ccc([C@@H](O)[C@@H](N)c3ccc(Cl)c(Cl)c3)cc2)c1 (racemic) [Example 105, rac-erythro-2-Amino-2-(3,4-dichloro-phenyl)-1-(2′-fluoro-5′-isopropoxy-biphenyl-4-yl)-ethanol]	0.567
CC(C)Oc1cccc(-c2ccc([C@@H](O)[C@@H](N)c3ccc(Cl)c(Cl)c3)cc2)c1 (racemic) [Example 106, rac-erythro-2-Amino-2-(3,4-dichloro-phenyl)-1-(3′-isopropoxy-biphenyl-4-yl)-ethanol]	0.851
N[C@@H](c1ccc(Cl)c(Cl)c1)[C@H](O)c1ccc(OC2CCOCC2)cc1 (single isomer, unassigned) [Example 41, (1R,2S or 1S,2R)-[2-Amino-2-(3,4-dichloro-phenyl)-1-[4-(tetrahydro-pyran-4-yloxy)-phenyl]-ethanol]	0.021

Now from value to compound:

IC50 [µM]	Structure (SMILES)
0.033	N[C@@H](c1ccc(Cl)c(F)c1)[C@H](O)c1ccc(-c2cccnc2)cc1 (racemic) [Example 84]
0.095	N[C@@H](c1ccc(Cl)c(F)c1)[C@H](O)c1ccc(-c2cncc(F)c2)cc1 (racemic) [Example 85, rac-erythro-2-Amino-2-(4-chloro-3-fluoro-phenyl)-1-[4-(5-fluoro-pyridin-3-yl)-phenyl]-ethanol]
0.049	Cc1cc([C@H](N)[C@H](O)c2ccc(-c3cccnc3)cc2)ccc1Cl (racemic) [Example 86, rac-erythro-2-Amino-2-(4-chloro-3-methyl-phenyl)-1-(4-pyridin-3-yl-phenyl)-ethanol]
0.255	N[C@@H](c1ccc(C(F)(F)F)cc1)[C@H](O)c1ccc(-c2cccnc2)cc1 (racemic) [Example 88, rac-erythro-2-Amino-1-(4-pyridin-3-yl-phenyl)-2-(4-trifluoromethyl-phenyl)-ethanol]
0.073	Cc1ccc([C@H](N)[C@H](O)c2ccc(-c3cccnc3)cc2)cc1F (racemic) [Example 91, rac-erythro-2-Amino-2-(3-fluoro-4-methyl-phenyl)-1-(4-pyridin-3-yl-phenyl)-ethanol]
0.084	Cc1ccc([C@H](N)[C@H](O)c2ccc(-c3cccnc3)cc2)cc1Cl (racemic) [Example 92, rac-erythro-2-Amino-2-(3-chloro-4-methyl-phenyl)-1-(4-pyridin-3-yl-phenyl)-ethanol]
0.094	Cc1ccc([C@H](N)[C@H](O)c2ccc(-c3cncc(F)c3)cc2)cc1Cl (racemic) [Example 93, rac-erythro-2-Amino-2-(3-chloro-4-methyl-phenyl)-1-[4-(5-fluoro-pyridin-3-yl)-phenyl]-ethanol]
0.104	Cc1ccc([C@H](N)[C@H](O)c2ccc(-c3cncc(F)c3)cc2)cc1F (racemic) [Example 94, rac-erythro-2-Amino-2-(3-fluoro-4-methyl-phenyl)-1-[4-(5-fluoro-pyridin-3-yl)-phenyl]-ethanol]
0.158	N[C@@H](c1ccc(C(F)(F)F)c(F)c1)[C@H](O)c1ccc(-c2cccnc2)cc1 (racemic) [Example 95, rac-erythro-2-Amino-2-(3-fluoro-4-trifluoromethyl-phenyl)-1-(4-pyridin-3-yl-phenyl)-ethanol]
0.056	NC(=O)c1cccc(-c2ccc([C@@H](O)[C@@H](N)c3ccc(Cl)c(Cl)c3)cc2)c1 (racemic) [Example 104, rac-erythro-4′-[2-Amino-2-(3,4-dichloro-phenyl)-1-hydroxy-ethyl]-biphenyl-3-carboxylic acid amide]
0.012	CS(=O)(=O)c1cccc(-c2ccc([C@@H](O)[C@@H](N)c3ccc(Cl)c(Cl)c3)c(F)c2)c1 (single isomer, unassigned) [Example 6, (1R,2S or 1S,2R)-2-Amino-2-(3,4-dichloro-phenyl)-1-(3-fluoro-3′-methanesulfonyl-biphenyl-4-yl)-ethanol hydrochloride]
0.059	N[C@@H](c1ccc(Cl)c(Cl)c1)[C@H](O)c1ccc(-c2cncc(F)c2)cc1 (single isomer, unassigned) [Example 8, (1R,2S or 1S,2R)-2-Amino-2-(3,4-dichloro-phenyl)-1-[4-(5-fluoro-pyridin-3-yl)-phenyl]-ethanol trifluoroacetate]
